Columns and labels:
Assay in all cases: relative viability (nuclei count vs DMSO), 5 days (fraction); higher = more cells survive
NCI-H1755 = system: NCI-H1755
Summary of the method: (§1)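 Lung cancer cell lines in 1536-well plates were dosed by pin tool the day after seeding, either with one drug alone or with a fixed anchor-drug dose plus five library-drug doses (not always all listed) in √10 steps. After 5 days, cells were fixed and their nuclei stained in one step (final 0.05% Triton X-100, 1% formaldehyde, 1 ug/ml Hoechst), then counted on 4× images. Relative viability is the nuclei count in treated wells divided by that in vehicle wells. Values are medians of duplicate plates.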

LCLC-97TM1 = system: LCLC-97TM1
Summary of the method: as §1

NCI-H2009 = system: NCI-H2009
Summary of the method: as §1

NCI-H1975 = system: NCI-H1975
Summary of the method: as §1

NCI-H441 = system: NCI-H441
Summary of the method: as §1

NCI-H460 = system: NCI-H460
Summary of the method: as §1

NCI-H1355 = system: NCI-H1355
Summary of the method: as §1

NCI-H647 = system: NCI-H647
Summary of the method: as §1

SK-LU-1 = system: SK-LU-1
Summary of the method: as §1

PC-3 [JPC-3] = system: PC-3 [JPC-3]
Summary of the method: as §1

NCI-H1793 = system: NCI-H1793
Summary of the method: as §1

NCI-H1993 = system: NCI-H1993
Summary of the method: as §1

NCI-H520 = system: NCI-H520
Summary of the method: as §1

NCI-H1944 = system: NCI-H1944
Summary of the method: as §1

NCI-H2347 = system: NCI-H2347
Summary of the method: as §1

SW 1573 = system: SW 1573
Summary of the method: as §1

NCI-H727 = system: NCI-H727
Summary of the method: as §1

ABC-1 = system: ABC-1
Summary of the method: as §1

EMC-BAC-2 = system: EMC-BAC-2
Summary of the method: as §1

NCI-H2126 = system: NCI-H2126
Summary of the method: as §1

PC-14 = system: PC-14
Summary of the method: as §1

NCI-H1563 = system: NCI-H1563
Summary of the method: as §1

NCI-H1666 = system: NCI-H1666
Summary of the method: as §1

CCCCCCCCCCCC1=C(O)C(=O)C=C(O)C1=O [Embelin] + C[C@]1(O)C[C@@H](c2nc(-c3ccc4ccc(-c5ccccc5)nc4c3)c3c(N)nccn32)C1 [Linsitinib] (partner 1 µM)
relative viability (NCI-H1755; first compound 0.08 µM): 1.03 | relative viability (NCI-H1755; first compound 0.8 µM): 1.06 | relative viability (NCI-H1755; first compound 2.53 µM): 1.07 | relative viability (NCI-H1755; first compound 8 µM): 0.98 | relative viability (LCLC-97TM1; first compound 0.8 µM): 0.239 | relative viability (LCLC-97TM1; first compound 2.53 µM): 0.233 | relative viability (LCLC-97TM1; first compound 8 µM): 0.204 | relative viability (NCI-H2009; first compound 0.08 µM): 1.24 | relative viability (NCI-H2009; first compound 0.8 µM): 1.3 | relative viability (NCI-H2009; first compound 2.53 µM): 1.21 | relative viability (NCI-H2009; first compound 8 µM): 1.12 | relative viability (NCI-H1975; first compound 0.08 µM): 0.976 | relative viability (NCI-H1975; first compound 0.8 µM): 0.994 | relative viability (NCI-H1975; first compound 2.53 µM): 1.04 | relative viability (NCI-H1975; first compound 8 µM): 0.973 | relative viability (NCI-H441; first compound 0.08 µM): 0.598 | relative viability (NCI-H441; first compound 0.8 µM): 0.559 | relative viability (NCI-H441; first compound 2.53 µM): 0.539 | relative viability (NCI-H441; first compound 8 µM): 0.622 | relative viability (NCI-H460; first compound 0.08 µM): 0.808 | relative viability (NCI-H460; first compound 0.8 µM): 0.988 | relative viability (NCI-H460; first compound 2.53 µM): 1.18 | relative viability (NCI-H460; first compound 8 µM): 0.69 | relative viability (NCI-H1355; first compound 0.08 µM): 0.757 | relative viability (NCI-H1355; first compound 0.8 µM): 0.813 | relative viability (NCI-H1355; first compound 2.53 µM): 0.968 | relative viability (NCI-H1355; first compound 8 µM): 0.724 | relative viability (NCI-H647; first compound 0.08 µM): 1.31 | relative viability (NCI-H647; first compound 0.8 µM): 1.27 | relative viability (NCI-H647; first compound 2.53 µM): 1.32 | relative viability (NCI-H647; first compound 8 µM): 1.28 | relative viability (SK-LU-1; first compound 0.08 µM): 1.17 | relative viability (SK-LU-1; first compound 0.8 µM): 1.28 | relative viability (SK-LU-1; first compound 2.53 µM): 1.1 | relative viability (SK-LU-1; first compound 8 µM): 0.993 | relative viability (PC-3 [JPC-3]; first compound 0.08 µM): 0.972 | relative viability (PC-3 [JPC-3]; first compound 0.8 µM): 0.967 | relative viability (PC-3 [JPC-3]; first compound 2.53 µM): 0.947 | relative viability (PC-3 [JPC-3]; first compound 8 µM): 0.983 | relative viability (NCI-H1793; first compound 0.08 µM): 0.736 | relative viability (NCI-H1793; first compound 0.8 µM): 1.15 | relative viability (NCI-H1793; first compound 2.53 µM): 1.5 | relative viability (NCI-H1793; first compound 8 µM): 0.853 | relative viability (NCI-H1993; first compound 0.08 µM): 0.734 | relative viability (NCI-H1993; first compound 0.8 µM): 0.807 | relative viability (NCI-H1993; first compound 2.53 µM): 0.764 | relative viability (NCI-H1993; first compound 8 µM): 0.771 | relative viability (NCI-H520; first compound 0.08 µM): 1 | relative viability (NCI-H520; first compound 0.8 µM): 0.849 | relative viability (NCI-H520; first compound 2.53 µM): 0.869 | relative viability (NCI-H520; first compound 8 µM): 1.03 | relative viability (NCI-H1944; first compound 0.08 µM): 1.15 | relative viability (NCI-H1944; first compound 0.8 µM): 1.39 | relative viability (NCI-H1944; first compound 2.53 µM): 1.17 | relative viability (NCI-H1944; first compound 8 µM): 1.12 | relative viability (NCI-H2347; first compound 0.08 µM): 0.968 | relative viability (NCI-H2347; first compound 0.8 µM): 1.03 | relative viability (NCI-H2347; first compound 2.53 µM): 1.09 | relative viability (NCI-H2347; first compound 8 µM): 0.958 | relative viability (SW 1573; first compound 0.08 µM): 0.842 | relative viability (SW 1573; first compound 0.8 µM): 0.924 | relative viability (SW 1573; first compound 2.53 µM): 0.75 | relative viability (SW 1573; first compound 8 µM): 0.832 | relative viability (NCI-H727; first compound 0.08 µM): 0.282 | relative viability (NCI-H727; first compound 0.8 µM): 0.192 | relative viability (NCI-H727; first compound 2.53 µM): 0.307 | relative viability (NCI-H727; first compound 8 µM): 0.268 | relative viability (ABC-1; first compound 0.08 µM): 0.863 | relative viability (ABC-1; first compound 0.8 µM): 0.786 | relative viability (ABC-1; first compound 2.53 µM): 0.772 | relative viability (ABC-1; first compound 8 µM): 0.825 | relative viability (EMC-BAC-2; first compound 0.08 µM): 0.845 | relative viability (EMC-BAC-2; first compound 0.8 µM): 0.862 | relative viability (EMC-BAC-2; first compound 2.53 µM): 0.844 | relative viability (EMC-BAC-2; first compound 8 µM): 0.842 | relative viability (NCI-H2126; first compound 0.08 µM): 0.714 | relative viability (NCI-H2126; first compound 0.8 µM): 0.787 | relative viability (NCI-H2126; first compound 2.53 µM): 0.746 | relative viability (NCI-H2126; first compound 8 µM): 0.676 | relative viability (PC-14; first compound 0.08 µM): 0.921 | relative viability (PC-14; first compound 0.8 µM): 1 | relative viability (PC-14; first compound 2.53 µM): 1.06 | relative viability (PC-14; first compound 8 µM): 0.972 | relative viability (NCI-H1563; first compound 0.08 µM): 1.14 | relative viability (NCI-H1563; first compound 0.8 µM): 1.18 | relative viability (NCI-H1563; first compound 2.53 µM): 1.16 | relative viability (NCI-H1563; first compound 8 µM): 1.16 | relative viability (NCI-H1666; first compound 0.08 µM): 0.898 | relative viability (NCI-H1666; first compound 0.8 µM): 0.995 | relative viability (NCI-H1666; first compound 2.53 µM): 0.83 | relative viability (NCI-H1666; first compound 8 µM): 0.97

Source: the supplement of paper PMC10307832
